The record followed here is patent publication US10624340B2, “Chemical combinations for attracting Vespidae” (priority 2017, dated 2020).

Holding throughout (format): in vivo, V. pensylvanica
Test [1] concerns Vespidae. Briefly: Box attraction test of single test agents (Example 1). As to conditions: 500 μL test agent in white box, 15 min tests, two tests, San Mateo County, July 2016; acetic acid 5%, citric acid 750 mM, ethanol 40%.
The subject of test [2] is Vespidae. Nature of the test: 14-day trapping test in RESCUE Reusable Yellowjacket traps (Experiment 4). As to conditions: 2 mL heptyl butyrate with or without 2 mL acid solution in trap, hung 14 days, counted day 15. As for the experimental part:
Materials and Methods. The fourth experiment evaluated combinations of heptyl butyrate and citric acid, malic acid, and tartaric acid versus heptyl butyrate alone as baits for Vespidae. Heptyl butyrate was included for comparison because of its known attractiveness to V. pensylvanica (Davis et al., 1969, Supra).
Attraction Measurements. Testing the efficacy of attraction of the chemicals was conducted using four standard commercially-available RESCUE Reusable Yellowjacket® traps filled with the various test agents. In this experiment, the traps were set and hung 5-6 feet off of the ground with all traps separated by 3-4 feet from one another. Chemical treatments were added to the attractant chambers (cotton absorbant material) of the trap and hung for 14 days. Measurements of the number of trapped Vespidae were made on day 15.
Chemical Treatments. Four chemical treatments were selected and combined with heptyl butyrate and compared to heptyl butyrate alone as baits for Vespidae. Chemicals combined with heptyl butyrate included citric acid solution (5 grams in 50 mLs of water), malic acid (6 grams in 50 mLs of water), and tartaric acid (7 grams in 50 mLs of water). Experiment 4 used 2 mL of the standard attractant (heptyl butyrate) as is found in the RESCUE reusable yellowjacket traps for the heptyl butyrate alone test. […]

The test system of test [3] is Vespidae. Briefly: Box attraction test of heptyl butyrate with citric, malic or tartaric acid (Experiment 3). The note with it: 500 μL of each agent, white box, 15 min tests, three tests, July 2017, acid alone, heptyl butyrate alone and combination run together, * P < 0.05 vs heptyl butyrate alone. As for the experimental part:
Materials and Methods. The third experiment evaluated combinations of heptyl butyrate and citric acid, malic acid, and tartaric acid versus heptyl butyrate alone as baits for Vespidae.
Attraction Measurements. Testing the efficacy of attraction of the chemicals was conducted using an apparatus that allows visualization of the Vespidae to an area with the attractant. This can be prepared in a variety of ways including the use of white 4-sided boxes in which the different attractants are placed at the bottom of the box. Attraction of the Vespidae to the boxes is visualized and Vespidae are counted when they fly into the plane of the box toward the attractant. Each experiment lasted 15 minutes and every 5 minutes, the boxes would be cleared of Vespidae and rotated counterclockwise to eliminate any possible effect of direction. Each experiment was conducted three times over the course of one day, for a total of 9 replicates per test.
Boxes were prepared using white paper (one foot square) and applying them to equal sizes of cardboard to create a 4-sided box with the white paper in the inside of the box. Boxes were placed in a triangle pattern on the ground and spaced equally three to four feet apart. Disposable plates with clipped-on absorbent material in them were placed in the bottom on the boxes. Each tested combination of attractants was poured onto the absorbent material on the plate and placed into a testing box.
Chemical Treatments. Four chemical treatments were selected and combined with heptyl butyrate and compared to heptyl butyrate alone as baits for Vespidae. Chemicals combined with heptyl butyrate included citric acid solution (5 grams in 50 mLs of water), malic acid (6 grams in 50 mLs of water), and tartaric acid (7 grams in 50 mLs of water). Experiment 3 used 500 μL of each test agent combined for a total of 1000 μL total volume in each test. The heptyl butyrate test used 500 μL of water and 500 µL of heptyl butyrate.

Molecules are shown by their SMILES. Several values for one entry are separate records, joined by “and”; a condition that tells them apart may be missing. Equal values may be shown once.

On to `CC(C)CO` [Isobutanol, isobutanol], for which the “Total Number of Vespidae Attracted to Single Test Agents, Sum Test 1 + 2” value (“Total Number … Sum Test 1 + 2” below) in the test with Vespidae [1] came out at 21. With `CCCCCCCOC(=O)CCC` [Heptyl Butyrate, heptyl butyrate], the “Total Number of V. Pensylvanica (Vespidae) Trapped During a 14-Day Test” value with Vespidae [2] is 91. Further, in the test on Vespidae [1], the “Total Number … Sum Test 1 + 2” value was 343. In addition, the “Total Number of Vespidae Attracted to Different Test Conditions” value (shortened to “Total Number … to Different Test Conditions”) in the test with Vespidae [3] is 355 and 590 and 477; in the test on Vespidae [3] (listed as heptyl butyrate) it was 477 and 355 and 590.

In the case of `O=C(O)CC(O)C(=O)O` (stereo not shown) [Malic Acid, malic acid], the “Total Number … to Different Test Conditions” value with Vespidae [3] is listed as 19. On to `CC(=O)O` [Acetic Acid, acetic acid], for which the “Total Number … Sum Test 1 + 2” value with Vespidae [1] was 2. Same read-out and setting: the result for `CC(O)C(=O)O` (stereo not shown) [Lactic Acid, lactic acid] reads 5; that for `CCO` [Ethanol, ethanol], 2. As to `O=C(O)CC(O)(CC(=O)O)C(=O)O` [Citric Acid, citric acid], the “Total Number … Sum Test 1 + 2” value in the test on Vespidae [1] is reported as 10. Besides, the “Total Number … to Different Test Conditions” value with Vespidae [3] amounted to 22. `CCCC(=O)O` [Butyric Acid, butyric acid]: in the test with Vespidae [1], the “Total Number … Sum Test 1 + 2” value stood at 5.

With `O=C(O)C(O)C(O)C(=O)O` (stereo not shown) [Tartaric Acid, tartaric acid], the “Total Number … to Different Test Conditions” value in the test with Vespidae [3] is recorded as 15.
